{
  "source": "patent US20160058829A1",
  "about": "“ANTI-FIBROTIC PEPTIDES AND THEIR USE IN METHODS FOR TREATING DISEASES AND DISORDERS CHARACTERIZED BY FIBROSIS” (Thrasos Innovation, Inc., priority 2011, published 2016)",
  "key": {"HK-2 cells": {"system": "HK-2 cells", "experiment": "TNF-α-induced inflammatory cytokine production in HK-2 cells (ELISA)", "type": "cell-based, human", "experimental": "FIG. 37 provides a bar graph showing a comparison of the effects of THR-123 (or “THR-1405”) and the specific inhibitor SB 203580 on the level of TNF-α-induced IL-6 production, an inflammatory marker, in human renal tubule epithelial cells (HK-2).\nFIG. 47A-FIG. 47C Anti-inflammatory activity of THR-123. PTEC-derived HK-2 (HK-2) cells were culture on 24-well plate (30,000 cells/well). Cells are exposed to K-SFM medium alone or TNF-α (5 ng/ml). Twenty hours after TNF-α incubation, cells are washed twice by pre-warmed culture media and subsequently cells are incubated with various concentration of THR-123 or BMP7 for 60 hours. At the end of incubation, culture medias are harvested and ELISA analysis are performed. FIG. 47A: IL-6, FIG. 47B: IL-8 and FIG. 47C: ICAM-1 results are shown. Analyze are performed in triplicates and data are shown as mean±s.e.m. in the graph.\nPreliminary screening for optimization was based on anti-inflammatory efficacy in an in vitro cell-based assay using a human renal tubular epithelial cell line (HK-2). The assay tested the ability of compounds to reverse the increase in production of cytokine IL-6 that resulted from stimulation of the cells with tumor necrosis factor (TNF)-α. Sequence-activity analysis was carried out using the SVA program. After six optimization cycles, THR-123 (FIG. 2A) emerged as the lead compound, which was further evaluated in other relevant anti-fibrosis assays (vide infra).\nHuman proximal tubular epithelial cells-derived HK-2 cells were culture on 24-well plate (30,000 cells/well). Cells are exposed to K-SFM medium alone or […] (5 ng/ml). Twenty hours after TNF-α incubation, cells are washed twice by pre-warmed culture media and subsequently cells are incubated with various concentration of THR-123 or BMP7 for 60 hours. At the end of incubation, culture medias are harvested and ELISA analysis for IL-6, IL-8 and ICAM-1 are performed."}, "p38 MAPK": {"system": "p38 MAPK", "experiment": "p38 MAPK phosphorylation in HK-2 cells", "type": "cell-based, human", "conditions": "HK-2 cells", "text": "The significance of p38 MAPK is that this protein is implicated as a non-Smad-dependent pathway for TGF-β-dependent EMT. Other non-Smad-dependent pathways implicated in TGF-β-dependent EMT include RhoA, Ras, PI3 kinase, Notch, and Wnt signaling pathways.\nIt has been shown that regulation p38 MAPK activity by pro-inflammatory factors has implications in fibrosis."}, "[1]": {"system": "Streptozotocin-induced diabetic CD-1 mice", "experiment": "Advanced diabetic nephropathy, captopril and captopril/THR-123 combination (month 7-8)"}, "[2]": {"system": "human proximal tubule epithelial cells (HK2)", "experiment": "D-glucose-induced EMT assay, E-cadherin immunofluorescence with colorimetric image analysis", "type": "cell-based", "conditions": "HK2 cells, high D-glucose", "experimental": "Chronic hyperglycemia is a known cause of renal fibrosis in type 2 diabetes. The assay in this example induces the transdifferentiation from the epithelial to the mesenchymal phenotype (EMT) in human proximal tubule epithelial cells (HK2) by exposing them to high levels of D-glucose (100 mM and 200 mM). […] Exposure to 100 mM D-glucose results in the loss of E-cadherine expression as evidenced by the loss of the fluorescene signal. Using this assay test compounds are evaluated based on their ability to inhibit the EMT processes in the presence of high levels of D-glucose. FIGS. 4-16 are fluorescence micrographs of HK2 cells exposed to 100 mM D-glucose and 100 uM of SEQ IS NOs 1 through 11, respectively. Note that all but SEQ ID NOs 10 and 11 were able to preserve the epithelial phenotype (i.e., inhibit the EMT).\nResults are provided in the context of FIG. 1 and Table 3, below. In Table 3 below, compound response is scored using image analysis as described herein in the method of Methods and Materials, part C. A 0% response corresponds to the signal for 100 mM (or 200 mM) D-glucose (untreated) while the 100% response corresponds to the signal for media in the absence of D-glucose.\nIt has been shown that transdifferentiation of proximal tubular epithelial cells is a critical step in the development of renal fibrosis, and that this is associated with a loss of the epithelial phenotypic marker, E-cadherin expression. This provides the basis for the development of a cell-based screening assay in which high concentrations of D-Glucose (50-100 mM) are used to induce a loss of E-cadherin expression in human renal proximal tubular epithelial (HK-2) cells, and compounds are tested for their ability to reverse the loss E-cadherin expression.\nMaterials: • Human proximal tubular epithelial cells, HK-2 (ATCC #CRL-2190) • Serum-free keratinocyte medium (GIBCO #17005-042, K-SFM) • Epidermal growth factor (EGF: 5 ng/mL) • Bovine pituitary extract (BPE: 40 ug/mL) • Primary antibody, Mouse IgG anti-E-cadherin (R&D Systems # MAB1838) • BSA [Sigma #A7030] • secondary antibody, FITC-conjugated Goat anti-mouse IgG (Fab2) fragment (Sigma-Aldrich # F-2653) • Paraformaldehyde (10%)) • Triton X-100 (Sigma # T-9284) • PBS (Fisher Scientific #BP399-1) • D-PBS (Invitrogen #14190-144) • Polypropylene tips (Axygen, Inc. 0.5-10 uL, cat # T-300-L-R; 1-200 uL, Cat # T-200-L-R; 1-1000 uL, Cat # T-1000-C-L-R) • 50 mL polypropylene culture tubes (Fisher Scientific, cat #06-443-18) • 24-well Coster cell culture plates (Fisher Scientific #07-200-84)\nReagents & Test Samples: • Positive control: BMP-7, assayed at concentrations 0.1 and 1 ug/mL • Test compounds (peptides): each tested at final concentrations 100 uM and 200 uM.\nAssay Procedure for Cell Culture Assay: • Run assay in 24-well culture plates. • Seed HK-2 cells at a density between 25,000 and 30,000 cells per well in lmL K-SFM medium with supplements added (growth medium) • Incubate HK-2 cells for 24 hours at 37° C., and let cells attach the plate • Next Day afternoon, change the medium with K-SFM medium with no added supplements (serum free medium) in all wells except the first two control wells. • Continue incubating HK-2 cells overnight at 37° C. • Next Day, aspirate the medium from all wells. Incubate the cells in growth medium (first two control wells) or expose them to test compounds for 2 hours at 37° C. Final concentrations of each Test compound are 100 and 200 uM. BMP-7 serves as a positive control in the assay. • After incubation, add D-glucose to all wells except first two control wells. Final concentrations of D-Glucose are 50 and 100 mM. • Incubate HK-2 cells for 60 hours at 37° C. • Aspirate the medium from all wells. To the wells, add pre-warmed growth medium or serum free medium containing D-glucose alone or D-glucose and test compound or D-glucose and BMP-7. Final concentrations of D-Glucose and Test compound are the same as above. • Continue incubating HK-2 cells for 24 hours at 37° C. […]"}},
  "note": "“Also recorded” adds a separate entry of the source. Positions of bridges follow the written chain, without caps; N, C: chain ends.",
  "data": [
    {"compound": "C[S+]([O-])c1ccc(-c2nc(-c3ccncc3)c(-c3ccc(F)cc3)[nH]2)cc1", "note": "(stereo not drawn) [SB 203580, reference compound]", "values": [
      {"measurement": "TNF-α-induced IL-6 production", "setting": "HK-2 cells; HK-2 cells", "result": "significantly reduced"},
      {"measurement": "basal p38 phosphorylation", "setting": "p38 MAPK", "result": "inhibited p38 phosphorylation"}
    ]},
    {"compound": "C[C@H](CS)C(=O)N1CCC[C@H]1C(=O)O", "note": "[captopril]", "values": [
      {"measurement": "mesangial matrix expansion", "setting": "[1]; CPR p.o. 50 mg/Kg/day, THR-123 p.o. 5 mg/Kg/day, month 7 to 8", "result": "did not inhibit progression of mesangial matrix expansion"},
      {"measurement": "EMT program (E-cadherin/FSP1 double positive tubules)", "setting": "[1]; month 7 to 8 treatment", "result": "inhibited"},
      {"measurement": "macrophage infiltration", "setting": "[1]; month 7 to 8 treatment", "result": "partially"},
      {"measurement": "tubule cell apoptosis (TUNEL) in diabetic kidney", "setting": "[1]; month 7 to 8 treatment", "result": "significantly inhibited apoptosis"},
      {"measurement": "macrophage infiltration", "setting": "[1]; month 7 to 8 treatment, listed as CPR", "result": "inhibited macrophage infiltration"}
    ]},
    {"compound": "(H)-CYYDDSSSVLCKKYRS-(OH) (H-CYYDDSSSVLCKKYRS-OH; disulfide 1-11; SMILES CC(C)C[C@@H]1NC(=O)[C@H](C(C)C)NC(=O)[C@H](CO)NC(=O)[C@H](CO)NC(=O)[C@H](CO)NC(=O)[C@H](CC(=O)O)NC(=O)[C@H](CC(=O)O)NC(=O)[C@H](Cc2ccc(O)cc2)NC(=O)[C@H](Cc2ccc(O)cc2)NC(=O)[C@@H](N)CSSC[C@@H](C(=O)N[C@@H](CCCCN)C(=O)N[C@@H](CCCCN)C(=O)N[C@@H](Cc2ccc(O)cc2)C(=O)N[C@@H](CCCNC(=N)N)C(=O)N[C@@H](CO)C(=O)O)NC1=O) [SEQ ID NO: 11]", "values": [
      {"measurement": "preservation of the epithelial phenotype (inhibition of EMT), anti-fibrotic effect", "setting": "[2]", "result": "very weak anti-fibrotic effect; also recorded: unable to inhibit the EMT process"},
      {"measurement": "activity in anti-inflammatory assays", "setting": "HK-2 cells", "result": "positive"}
    ]}
  ]
}
